Experiment [1] concerns the target T1, CYP2C19 (Homo sapiens, UniProt P33261).
T1 construct: incubation mixtures containing pooled human liver microsomes (HLMs, XTreme 200, XenoTech); tissue XenoTech XTreme 200; host or cells: pooled human liver microsomes
Put plainly: Inhibition of CYP2C19 (omeprazole) activity in pooled human liver microsomes. The conditions noted are these: substrate omeprazole 20 µM; pooled HLMs; read-out: IC50, P450 2C19. In kind it is in vitro ADME. On the procedure: The inhibitory potential of the five biflavonoids on the metabolism of nine P450 probe substrates was evaluated using previously developed methods with minor modifications. Biflavonoids were dissolved in methanol. The final concentration of methanol in the incubation mixture was 1.0% (v/v). We used these P450 probe substrates: phenacetin for CYP1A2, coumarin for CYP2A6, bupropion for CYP2B6, amodiaquine for CYP2C8, diclofenac for CYP2C9, omeprazole for CYP2C19, dextromethorphan for CYP2D6, chlorzoxazone for CYP2E1 and midazolam for CYP3A (Table 1). The incubation mixtures containing pooled human liver microsomes (HLMs, XTreme 200, XenoTech), P450 probe substrates, and inhibitor (0~20 µM) were pre-incubated at 37 °C for 5 min. The concentration range of the inhibitor varied (0, 0.002, 0.005, 0.02, 0.05, and 0.2 µM for CYP2C8; 0, 0.02, 0.05, 0.2, 0.5, and 2 µM for CYP2C9; 0, 0.5, 2, 5, 10, and 20 µM for other P450 isoforms). After pre-incubation, a reduced nicotinamide adenine dinucleotide phosphate (NADPH) generation system containing 1 unit/ml G6PDH, 1.3 mM β- nicotinamide adenine dinucleotide phosphate (β- NADP^+), 3.3 mM MgCl2, and 3.3 mM G6P was added to initiate a reaction, and further incubated for 10 min at 37 °C. The reaction was stopped by adding 50 μL of ice-cold acetonitrile containing 7 nM trimipramine (internal standard, IS). After centrifugation at 18,000 g (5 min, 4 °C), aliquots of supernatants were analyzed by LC–MS/MS (Shimadzu LCMS 8060 system, Shimadzu, Kyoto, Japan). All microsomal incubations were conducted in triplicate.
All metabolites and the IS were separated on a Kinetex XB-C18 column (100 × 2.10 mm, 2.6 μm, 100 Å; Phenomenex, Torrance, CA, USA) and analyzed using a Shimadzu LCMS 8060 triple-quadrupole mass spectrometer coupled with a Nexera X2 ultra high-performance liquid chromatography system (Shimadzu, Kyoto, Japan) equipped with an electrospray ionization interface. The mobile phase consisted of 0.1% formic acid in water (A) and 0.1% formic acid in acetonitrile (B). The elution condition was set as 8% B (0–0.5 min), 8%→60% B (0.5–5 min), 60% B (5–6 min), 60%→8% B (6–6.1 min) and 8% B (6.1–9 min) for the analysis of metabolites of P450 probe substrates and set as 0%→40% B (0–1 min), 40%→50% B (1–5 min), 50%→0% B (5–5.1 min), and 0% B (5.1–8 min) for the analysis of metabolites of UGT probe substrates. The flow rate was 0.2 mL/min. Electrospray ionization was performed in positive-ion mode at 4000 V or in negative-ion mode at −3500 V. The optimum operating conditions were determined as follows: vaporizer temperature, 300 °C; capillary temperature, 350 °C; collision gas (argon) pressure, 1.5 mTorr. Quantitation was conducted in selected reaction monitoring (SRM) modes with the precursor-to-product ion transition for each metabolite (Table 1 and Table 2).
We analyzed the data with Shimadzu LabSolution LC–MS software. The IC50 values were calculated by WinNonlin software (Pharsight, Mountain View, CA, USA). The type of inhibition and the apparent kinetic parameters for inhibitory activity (Ki) were determined by following several criteria: visual inspection of Dixon plots, Lineweaver–Burk double reciprocal plots, and secondary plots of Lineweaver–Burk plots versus biflavonoid concentrations, the size of the sum of squares of the residuals, Akaike Information Criteria values, the S.E. and 95% confidence interval of the parameter estimates from the nonlinear regression analysis using the WinNonlin software. The models tested included competitive, competitive partial, noncompetitive, noncompetitive partial, uncompetitive, uncompetitive partial, and mixed-type inhibition.

Experiment [2] concerns the target T2, UGT1A1 (Homo sapiens, UniProt P22309).
T2 sequence (P22309 26-533): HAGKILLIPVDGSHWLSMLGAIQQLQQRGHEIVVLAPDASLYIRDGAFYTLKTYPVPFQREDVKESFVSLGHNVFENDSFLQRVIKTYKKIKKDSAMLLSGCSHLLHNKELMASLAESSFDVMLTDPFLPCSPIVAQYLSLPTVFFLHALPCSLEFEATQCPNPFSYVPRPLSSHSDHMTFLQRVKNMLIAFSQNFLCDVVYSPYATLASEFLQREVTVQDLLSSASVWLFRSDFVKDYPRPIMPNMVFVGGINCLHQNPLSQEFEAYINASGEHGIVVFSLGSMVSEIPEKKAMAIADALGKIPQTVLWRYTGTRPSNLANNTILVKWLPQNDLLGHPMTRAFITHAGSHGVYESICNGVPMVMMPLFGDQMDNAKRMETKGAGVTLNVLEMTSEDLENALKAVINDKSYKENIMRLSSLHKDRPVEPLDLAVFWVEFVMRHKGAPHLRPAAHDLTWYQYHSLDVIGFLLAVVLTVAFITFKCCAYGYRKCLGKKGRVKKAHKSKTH
Put plainly: Inhibition of UGT1A1 (SN-38 glucuronidation) in human liver microsomes. In kind it is in vitro ADME. Set-up: tissue XenoTech XTreme 200; host or cells: pooled human liver microsomes. The conditions noted are these: substrate SN-38; HLMs 0.25 mg/mL; average ± standard error. The procedure: The ability of selamariscina A to inhibit the metabolism of six UGT enzyme probe substrates was evaluated using previously developed methods with minor modifications. The microsomal incubation was performed by dividing the non-interactive substrate cocktail sets (set A included SN-38 for UGT1A1, CDCA for UGT1A3 and TFP for UGT1A4 while set B included N-SER for UGT1A6, MPA for UGT1A9 and NX for UGT2B7) (Table 2). In brief, HLMs (0.25 mg/mL) were activated by incubation in the presence of alamethicin (25 µg/mL) for 15 min on ice. After the addition of UGT probe substrates and inhibitor (0, 0.5, 2, 5, 20 and 50 μM), the incubation mixtures were pre-incubated at 37 °C for 5 min. […] After centrifugation at 18,000 g (5 min, 4 °C), aliquots of supernatants were analyzed by LC–MS/MS. […]
All metabolites and the IS were separated on a Kinetex XB-C18 column (100 × 2.10 mm, 2.6 μm, 100 Å; Phenomenex, Torrance, CA, USA) and analyzed using a Shimadzu LCMS 8060 triple-quadrupole mass spectrometer coupled with a Nexera X2 ultra high-performance liquid chromatography system (Shimadzu, Kyoto, Japan) equipped with an electrospray ionization interface. […] Quantitation was conducted in selected reaction monitoring (SRM) modes with the precursor-to-product ion transition for each metabolite (Table 1 and Table 2).
We analyzed the data with Shimadzu LabSolution LC–MS software. […]

The IC50 is the concentration needed to halve the response being measured.

T1 sequence (P33261 whole entry): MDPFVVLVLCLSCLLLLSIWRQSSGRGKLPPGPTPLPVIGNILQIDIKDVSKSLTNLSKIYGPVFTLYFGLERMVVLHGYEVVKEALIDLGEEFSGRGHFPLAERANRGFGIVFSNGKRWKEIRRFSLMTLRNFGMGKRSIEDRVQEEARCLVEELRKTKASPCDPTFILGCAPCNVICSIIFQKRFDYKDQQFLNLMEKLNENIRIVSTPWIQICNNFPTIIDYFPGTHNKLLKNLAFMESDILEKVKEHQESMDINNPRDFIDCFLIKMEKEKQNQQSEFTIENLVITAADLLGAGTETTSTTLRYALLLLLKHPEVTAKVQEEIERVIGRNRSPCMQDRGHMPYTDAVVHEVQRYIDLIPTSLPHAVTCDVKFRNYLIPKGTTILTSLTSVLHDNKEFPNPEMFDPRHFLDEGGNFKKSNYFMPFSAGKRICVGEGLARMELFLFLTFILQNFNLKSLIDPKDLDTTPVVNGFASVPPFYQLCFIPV

Turning to `O=c1cc(-c2ccc(O)c(-c3c(O)cc(O)c4c(=O)cc(-c5ccc(O)cc5)oc34)c2)oc2cc(O)cc(O)c12` [amentoflavone], the IC50 was determined as 3.4 µM in experiment [1] and 1700 nM in experiment [2].

In the case of `O=c1cc(-c2ccc(O)cc2)oc2c(-c3c(O)cc(O)c4c(=O)cc(-c5ccc(O)cc5)oc34)c(O)cc(O)c12` [cupressuflavone], in experiment [1], the IC50 was found to be 3 µM.

Take `CC(C)(O)c1ccccc1CC[C@@H](SCC1(CC(=O)O)CC1)c1cccc(/C=C/c2ccc3ccc(Cl)cc3n2)c1` [montelukast, reference compound]: the IC50 in experiment [1] is more than 50 µM.

As for `O=c1cc(-c2ccc(O)c(-c3c(O)cc4oc(-c5ccc(O)cc5)cc(=O)c4c3O)c2)oc2cc(O)cc(O)c12` [robustaflavone], the half-inhibitory concentration (IC50) in experiment [1] was 6.4 µM.

Consider `O=C1CC(c2cc(-c3c(O)ccc4c(=O)cc(-c5ccc(O)cc5)oc34)c(O)cc2O)Oc2cc(O)cc(O)c21` (centres unmarked) [selamariscina A], for which the IC50 in experiment [1] worked out at 13.3 µM; in experiment [2], 1700 ± 500 nM.

Regarding `O=c1cc(-c2ccc(O)c(-c3c(-c4ccc(O)cc4)oc4cc(O)cc(O)c4c3=O)c2)oc2cc(O)cc(O)c12` [taiwaniaflavone], the IC50 in experiment [1] came to 5 µM.

(Values after PMC7238120, “Strong and Selective Inhibitory Effects of the Biflavonoid Selamariscina A against CYP2C8 and CYP2C9 Enzyme Activities in Human Liver Microsomes” (Pharmaceutics, 2020).)
